{"source": "patent US12458630B2", "about": "“Combination therapy for cancer” (The Regents of the University of California, priority 2020, dated 2025)", "system": "Kras^G12D;Ikkα^ΔPEC mice", "experiment": "Autochthonous PDAC model", "type": "in vivo, mouse", "method": "To evaluate the effects of MP on tumor growth in the autochthonous model, Kras^G12D;Ikkα^Δpan mice, at 4 weeks of age, were treated with vehicle or 10 mg/kg EIPA (Sigma) by intraperitoneal injection every other day for 1 month. After that, surgically removed pancreata were weighed and used for further analysis. To evaluate the effects of MP on heterotopic xenografts, female homozygous BALB/c Nu/Nu nude mice were injected subcutaneously (s.c.) in both flanks at 7 weeks of age with 10^6 parental and IKKα KO MIA PaCa-2 cells mixed at a 1:1 dilution with BD Matrigel (BD Biosciences) in a total volume of 100 μl. Mice were treated with EIPA (7.5 mg/kg) for 15 days when tumors attained an average volume of 50-100 mm^3. As a control, animals treated with vehicle (DMSO in PBS) were used. Volumes (1/2×(width^2×length)) of s.c. tumors were calculated on the basis of measurements using digital calipers after 15 days of treatment. To evaluate the combination effects of autophagy and MP inhibition on tumor growth, C57BL/6 mice were injected s.c. at 7 weeks of age with 10^7 KC6141 cells in a total volume of 100 μl. Mice were treated with vehicle, EIPA (7.5 mg/kg), MRT68921 (10 mg/kg, MCE), or EIPA and MRT68921 for 21 days when tumors attained an average volume of 100 mm^3. Tumor volumes were calculated as above.\nIn some embodiments, to evaluate the effects of MP on tumor growth or survival in the autochthonous model, Kras^G12D;Ikkα^ΔPEC mice, at 4 weeks of age, were treated with vehicle or 10 mg/kg EIPA (Sigma) by i.p. injection every other day for 1 month. After that, surgically removed pancreata were weighed and used for further analysis and other mice were continued to maintain for survival. To evaluate the effects of MP on heterotopic xenografts, female homozygous BALB/c Nu/Nu nude mice were injected subcutaneously (s.c.) in both flanks at 7 weeks of age with 10^6 parental and IKKα^Δ MIA PaCa-2 cells or 1334 and 1444 cells mixed at a 1:1 dilution with BD Matrigel (BD Biosciences) in a total volume of 100 μl. Mice were treated with vehicle (DMSO in PBS), EIPA (7.5 mg/kg), MRT68921 (10 mg/kg) or MRT68921 and EIPA for 15 days when tumors attained an average volume of 50-100 mm^3. Volumes (1/2×(width^2×length)) of s.c. tumors were calculated on the basis of measurements using digital calipers after 15 days of treatment. To evaluate the combination effects of autophagy and MP inhibition on tumor growth, C57BL/6 mice were injected s.c. at 7 weeks of age with 10^6 parental, Ikkα KD, Nhe1 KD or Ikkα+Nhe1 DKD KC6141 cells in a total volume of 100 μl. Mice were treated with or without vehicle, EIPA (7.5 mg/kg), MRT68921 (10 mg/kg), or EIPA and MRT68921 for 21 days when tumors attained an average volume of 50-100 mm^3. Tumor volumes were calculated as above.\nCell imaging. Immunostaining was performed as described^44. Cells were cultured on coverslips and fixed in 4% PFA for 10 min at room temperature. After washing twice in PBS, cells were incubated in PBS containing 10% FBS to block nonspecific sites of antibody adsorption. The cells were then incubated with the appropriate primary antibodies (diluted 1:100) and secondary antibodies (diluted 1:500) in PBS containing 10% FBS with or without 0.1% saponin. For cell macropinosome visualization, 24 hrs after seeding, the cells were serum starved for 18 hrs. Macropinosomes were marked using a high-molecular-mass (70 KD) TMR-Dextran (Invitrogen)-uptake assay, wherein TMR-DEX was added to serum-free medium at a final concentration of 1 mg/ml for 30 min at 37° C. At the end of the incubation period, the cells were rinsed five times in cold PBS and immediately fixed in 4% PFA. For tissue macropinosome visualization^45, fresh pancreata were cut into pieces with an approximate 5-mm cuboidal shape. A tissue section was placed in a 24-well plate and injected 150 μL of 10 mg/ml TMR-DEX solution directly into the tissue piece. Another 250 μL of diluted TMR-DEX solution were added to the well to immerse the tissue section. […]", "key": {"[1]": {"conditions": "10 mg/kg EIPA for 1 month vs vehicle"}}, "note": "Entries after “also recorded” stand apart in the source; their conditions may differ."}
{"smiles": "CCN(c1nc(N)c(C(=O)N=C(N)N)nc1Cl)C(C)C", "note": "[EIPA, 5-(N-ethyl-N-isopropyl) amiloride]", "values": [{"measurement": "residual cancer tissue (histological analysis)", "setting": "10 mg/kg EIPA for 1 month", "result": "very little residual cancer tissue; also recorded: little residual cancer tissue"}, {"measurement": "IHC: acinar cell loss (amylase up, CK19 and SOX9 down)", "setting": "[1]", "result": "prevented acinar cell loss"}, {"measurement": "MP in TMR-DEX injected pancreata", "setting": "[1]", "result": "decreased MP"}, {"measurement": "histology (H&E): ADM, advanced PanIN formation, normal parenchyma", "setting": "[1]", "result": "inhibited acinar-to-ductal metaplasia (ADM) and advanced pancreatic intraepithelial neoplasia (PanIN) formation, and preserved the normal pancreatic parenchyma"}, {"measurement": "pancreatic weight (a measure of tumor growth)", "setting": "10 mg/kg EIPA i.p. every other day for 1 month, from 1 month of age, vs vehicle", "result": "markedly reduced; also recorded: significantly reduced"}, {"measurement": "survival (Kaplan-Meier)", "setting": "10 mg/kg EIPA vs vehicle, n=12", "result": "substantially extended; also recorded: enhanced the percent survival rate"}]}
